According to the NIST ThermoML archive (doi:10.1021/je300111m):
“And” between values parts separate entries of the source, which are not always exact repeats. Equal entries are not always repeated. ± gives the expanded uncertainty stated by the source.

Settings: Liquid

SMILES: CCC [propane]
- vapor or sublimation pressure (243.23 K): 168 ± 2.8 kPa and 168.2 ± 2.8 kPa
- vapor or sublimation pressure (273.12 K): 473.5 ± 7.7 kPa

SMILES: S [hydrogen sulfide]
- vapor or sublimation pressure (222.83 K): 167.3 ± 2.8 kPa
- vapor or sublimation pressure (243.02 K): 384 ± 6.2 kPa
- vapor or sublimation pressure (243.18 K): 380.2 ± 6.2 kPa
- vapor or sublimation pressure (243.2 K): 379.4 ± 6.2 kPa
- vapor or sublimation pressure (273.12 K): 1030.2 ± 17 kPa
- vapor or sublimation pressure (273.13 K): 1029.3 ± 17 kPa
- vapor or sublimation pressure (293.43 K): 1793.7 ± 29 kPa

SMILES: CCCC [butane]
- vapor or sublimation pressure (243.03 K): 29.1 ± 0.5 kPa
- vapor or sublimation pressure (293.38 K): 210.8 ± 3.5 kPa
